# Assay results from PubChem BioAssay AID1902 (Broad Institute, 2009).
# pEC50: −log10 of the molar value. Active and inactive are the calls of the source.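 How the source made its calls: active means EC50 no more than a set limit of log units above the highest dose; inactive means the rest.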
# Target: S. pyogenes SKKanGAS, kanamycin survival, BacTiterGlo, 6 h
# Assay: SKKanGAS survival reduction under kanamycin, dose response, streptokinase promoter inhibitor project, SKKanGAS strain, luminescence, dose confirmation (AID 1902);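 further: lower survival reflects blocked streptokinase promoter driving kanamycin resistance gene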
SMILES,EC50,pEC50
COc1ccc(CN(C)S(=O)(=O)c2ccc3c(c2)OCCO3)cc1,> 15 µM (inactive),
CCN(CC)c1ccc(-c2nn3c(-c4ccccc4OC)nnc3s2)cc1,,5.21
Cn1c2ccccc2c(=O)c2c(=O)n(C3CCCCC3)c(-c3cccs3)nc21,,5.15
Cc1ccc(N=N/C(=C\O)C(=O)c2ccc(Cl)cc2)cc1,,5.07
Cc1nnc(SCC2=C(C(=O)O)N3C(=O)C(NC(=O)Cn4nc(C(F)F)c(Cl)c4C)C3SC2)s1 (centres undefined),,> 7.22
CCOC(=O)C1=Nc2ccccc2C1=[N+]=[N-],,6.61
O=C(Nc1ccc(Cl)c(Cl)c1)Nc1nccs1,,5.06
CCCCN(C)S(=O)(=O)c1ccc(C(=O)Nc2nnc(-c3cccs3)o2)cc1,,6.03
COc1ccc(NP(=O)(Oc2ccc(Cl)cc2)Oc2ccc(Cl)cc2)cc1OC,,5.14
O=C(O)c1ccc(N/N=C/c2ccc(-c3ccc(Cl)cc3Cl)o2)cc1,,5.71
COc1ccc(/C=N/NC(=O)c2cc(C(C)(C)C)[nH]n2)cc1COc1ccc(F)cc1F,,5.12
CN(CC1CCCO1)S(=O)(=O)c1ccc(C(=O)Nc2ccccc2F)cc1 (centres undefined),> 15 µM (inactive),
COc1cc(C(=O)NNC(=S)NC(=O)c2ccc(Cl)cc2)cc(OC)c1OC,,6.30
CC(C)(C)c1ccc(C(=O)CC(=O)c2cc(Cl)ccc2O)cc1,,6.46
COc1ccc2oc(=O)c(-c3csc(Nc4ccc(O)cc4)n3)cc2c1,,5.67
Cc1ccc(/C=C/C2=NN(Cc3ccc(Cl)c(Cl)c3)C(=O)CC2)cc1,,5.11
CC1(C)S[C@@H]2[C@H](NC(=O)COc3ccccc3)C(=O)N2C1C(=O)OCc1ccccc1 (some centres undefined),,5.98
Cc1cc(C)c2sc(NNC(=O)c3ccc(S(=O)(=O)N4CCc5ccccc5C4)cc3)nc2c1,,5.97
O=C(Nc1cccc(NC(=O)c2ccccc2Cl)c1)c1ccc([N+](=O)[O-])o1,,5.32
NCCCn1c(C(=O)c2cc(Cl)c(N)c(Cl)c2)c2ccc([N+](=O)[O-])cc2[n+]1[O-],,5.37
CSc1ccccc1-c1n[nH]c(=S)o1,> 5 µM (inactive),
COc1cc2c3c(c1)/C(=C1/SC(=S)NC1=O)C(=O)N3C(C)(C)C=C2C,,5.96
Brc1ccc(-c2cn3c(n2)CCc2ccc4cccnc4c2-3)cc1,,5.75
Cc1cc(NC(=O)c2cnccn2)no1,> 15 µM (inactive),
O=C(CSc1nc2ccccc2c(=O)n1NC(=O)c1ccccc1)c1ccc(Cl)cc1,,4.95
Nc1[nH]n2c(=O)cc(-c3ccccc3)nc2c1N=Nc1ccccc1,,5.74
C/C(=N\Nc1nc2ccccc2[nH]1)c1ccc2c(c1)OCO2,,5.37

SMILES,EC50,pEC50
Cc1nc(-c2ccccn2)nc(SCC(=O)c2ccccc2)c1Cl,,6.09
Cc1cc(C(F)F)nn1CC(=O)NC1C(=O)N2C(C(=O)O)=C(CSc3nnnn3C)CSC12 (centres undefined),,> 7.22
Cn1cccc1CC(=O)NNC(=S)NC(=O)c1ccccc1Br,,5.79
O=[N+]([O-])c1ccc(N=Nc2ccc(O)cc2O)cc1,,5.53
N#C/C(=C(/O)CCl)c1nc2c(s1)CCc1ccccc1-2,,4.91
Cc1ccccc1-c1cc(-c2ccccc2O)n[nH]1,,4.91
Oc1cc2ccccc2cc1-c1n[nH]c(=S)o1,,4.96
Cc1ccc(-n2c(O)c(C=Nc3ccccc3-c3n[nH]c(=S)[nH]c3=O)c3ccccc3c2=O)cc1C,,6.04
COc1ccccc1N1CCN(Cc2nc(N)nc(Nc3ccc(C)c(Cl)c3)n2)CC1,,5.10
CCOC(=O)C1=C(Cc2ccc(C)cc2)C(=O)c2ccccc2C1=O,,5.33
Cc1ccccc1N=Nc1ccc(O)c2ncccc12,,7.16
O=C(CSc1ccccn1)N/N=C/c1cc([N+](=O)[O-])ccc1O,,5.98
CC(C)c1ccc(C(=O)NC(=S)Nc2ccc3[nH]c(=O)[nH]c3c2)cc1,,5.20
Cc1ccccc1NS(=O)(=O)c1ccc(C)c(C(=O)N2CCOCC2)c1,> 15 µM (inactive),
CC(C)c1ccc(N2C(=O)/C(=C/N(C)C)SC2=S)cc1,,5.33
S=c1nc(SCc2ccccc2)[nH]c2ccccc12,,5.50
CCC(C)c1ccccc1NS(=O)(=O)c1cnn(CC)c1 (centres undefined),> 15 µM (inactive),
Cc1cccc(/C=N/NC(=O)c2ccc3c(c2)OCCO3)c1O,,5.36
CCN(CC)C(=S)Sc1c(-c2ccccc2)c2cc(Cl)ccc2[nH]c1=O,,6.11
CCOP(=O)(Cc1ccc(C(=O)CC)o1)OCC,> 15 µM (inactive),
CCN(CC)c1nc(C(F)(F)F)nc2c1nnn2Cc1ccccc1,,5.44
COc1ccc(CCNC(=O)c2cc(-c3ccc(Cl)c(Cl)c3)oc2C)cc1,,4.91
CCC(C)(C)c1ccc(OCCCC[n+]2cccc(C)c2)c(C(C)(C)CC)c1,,5.11
O=C(CSC(=S)N1CCCCC1)Nc1nc(-c2ccccc2)c(-c2ccccc2)o1,,5.75
CCCC(NC(=S)NCC1CCCO1)C12CC3CC(CC(C3)C1)C2 (centres undefined),,5.24
O=C(CSc1nc(Nc2ccccc2)nc(N2CCOCC2)n1)Nc1cc(Cl)ccc1O,,5.38
Cc1cc(SCC(=O)c2ccc(O)c(O)c2)n2nc(C)c(-c3ccccc3)c2n1,,5.30

SMILES,EC50,pEC50
CCN1/C(=C/c2ccc3ccccc3[n+]2CC)C=Cc2ccccc21,,5.22
O=[N+]([O-])c1ccc(/C=[N+](\[O-])CCO)o1,,5.24
COc1ccccc1-n1c(SCC(=O)Nc2ccc(C)cc2)nc(O)cc1=O,,4.87
C/C(N)=C(/C#N)C(=O)CSc1nc2cc(Cl)ccc2c(=O)n1Cc1ccco1,,5.06
CCNC(=O)c1c(NC(=O)c2cc(-c3cc(C)ccc3O)n[nH]2)sc2c1CCCC2,,5.61
Cc1ccc(C(=O)NC(=S)NNC(=O)COc2ccccc2C)cc1,,6.79
Clc1ccc2c(N/N=C/c3ccc(Br)cc3)ccnc2c1,,5.50
O=C(COc1ccccc1)NC1C(=O)N2C(C(=O)O)=C(Cl)CSC12 (centres undefined),,6.89
Cc1ccc2nc(N3C(=O)CNC3=S)sc2c1,,5.36
CCOC(=O)C1=C(C)n2c(s/c(=C/c3cccc([N+](=O)[O-])c3)c2=O)=NC1c1ccc(O)c(OC)c1 (centres undefined),,4.98
Cc1cc2oc(=O)cc(CN(C)Cc3ccccc3)c2cc1C(C)C,,5.34
Cc1[nH]cnc1C(=O)N/N=C/c1ccc([N+](=O)[O-])s1,,5.43
CC(Oc1ccc(Br)cc1)C(=O)Nc1nc(-c2ccccn2)cs1 (centres undefined),,> 7.22
O=C(Nc1cccc(C(F)(F)F)c1)Oc1ccc(Cl)c2cccnc12,,5.71
N#Cc1c(-c2ccccc2)nc(SCC(=O)N2c3ccccc3Sc3ccccc32)[nH]c1=O,,5.41
Cc1ccc(-c2cc(-c3cccc(F)c3)n[nH]2)c(O)c1,,5.36
c1ccc(N(c2ccccc2)c2nc(N3CCCC3)nc(-n3ccnc3)n2)cc1,,5.21
O=C(Nc1nc2ccccc2[nH]1)c1cccc(Cl)c1,,4.98
Oc1cccc(/C=N/N(Cc2ccccc2)c2ccccc2)c1,,5.22
O=C(CSc1nnc(CNC(=O)c2ccc(F)cc2)o1)NCc1ccccc1,> 15 µM (inactive),
CCC(=O)N1N=C(c2c(O)n(CCc3ccccc3)c(=O)[nH]c2=O)CC1c1ccc(OC)c(OC)c1 (centres undefined),,6.00
O=[N+]([O-])c1c(NCCCO)cc(Sc2nc3ccccc3s2)c2nonc12,,5.70
O=C(NC(NC(=S)Nc1c(Cl)cc(Cl)cc1Cl)C(Cl)(Cl)Cl)OCc1ccccc1 (centres undefined),,6.01
Cc1cccc(C)c1OC1(c2ccccc2)OC(=O)c2ccccc21 (centres undefined),,5.55
COc1cccc(N2C(=O)C3NN=C(C(=O)CN4C(=O)c5ccccc5C4=O)C3C2=O)c1 (centres undefined),> 15 µM (inactive),
